Source: patent US12578350B2, “System and method for coagulation and platelet function related data collection and analysis” (FloBio LLC, priority 2024, dated 2026)

System: fibrin accumulation
Experiment: Microfluidic whole blood flow assay over collagen/tissue factor reaction zone, fibrin signal, drug spiked in vitro
Type: cell-based, human
Details: blood sample treated with different doses, in relation to HBS control; 37° C. and 21° C.; FIGS. 17C-17D
Excerpt: The drug in question can be mixed with a small bolus of patient blood outside the device (in vitro), and the drug spiked blood then analyzed on the system. […] Fresh whole blood (used within minutes of venous draw), AF594 fibrinogen (fibrinogen from human plasma, Alexa FluorTM 594 conjugate) and platelet MCA2588A488 (mouse anti-human CD61, Alexa FluorTM 488 conjugate) can be added to the device 100 and the direct fluorescence signals can be analyzed. […] The result is the production of direct fluorescent signals in green (platelets) and red (fibrin) where the measured fluorescent intensity (FI) directly correlates with the accumulation of platelets and fibrin. The fluorescent signal intensity can be directly measured at each clot site over time to produce clot response curves for both fibrin and platelets. Fluorescence signal (intensity) can be extracted for each clot and plotted for each assay condition. Two signals are generated in the test as fluorescence intensity (FI) for fibrin and platelets accumulating in the region of interest on the device. […] The optimal time at which to select data for analyses is generally determined to be the time of the maximum rate of stable signal development, which typically corresponds to the half-max or T50 time point of the assay.

`O=C(NC[C@H]1CN(c2ccc(N3CCOCC3=O)cc2)C(=O)O1)c1ccc(Cl)s1` [Rivaroxaban] was tested, and the “fibrin signal with increasing dose” value was “decreases”.
